Data as given in patent US20090149554A1, “WATER-SOLUBLE METAL ALCOHOLATE DERIVATIVES, PRODUCTION METHODS THEREOF, AND SOLID GELATINOUS EXTERNAL PREPARATIONS CONTAINING THE SAME” (SHISEIDO CO., LTD., priority 2005, published 2009).
Like-named read-outs stand apart in the source and are kept apart here.

Legend:
[1] = Gelation ability in KGM medium (visual); assay type: physicochemical; conditions: room temperature
Description: (§1) In order to investigate the gelation ability of the above-described polyhydric alcohol substituted silane derivatives in water, the present inventors visually evaluated the progress of gelation for the 1,3-butylene glycol substituted compound and glycerin substituted compound.
(§2) The gelation ability was evaluated by adding the polyhydric alcohol substituted silane derivative to water or KGM medium to obtain various concentrations, mixing and stirring at room temperature, allowing the solution to stand still, and visually observing the gelation.

[2] = Gelation ability in aqueous solution (visual); assay type: physicochemical; conditions: room temperature
Description: as §1, §2

[3] = Gel formation on mixing the product with the same amount of water; assay type: physicochemical
Description: . Then, the mixture was mixed with stirring at room temperature for 48 hours. After the solid catalyst was separated by filtration, ethanol and acetonitrile were distilled away under reduced pressure, and 4.0 g of transparent viscous liquid was obtained.

[4] = Solubility of polyhydric alcohol substituted silane derivatives in various solvents; assay type: physicochemical; conditions: summary of Table 1
Description: Subsequently, the present inventors evaluated the solubility of the thus obtained polyhydric alcohol substituted silane derivatives in various solvents.
The evaluation of solubility was conducted by adding a polyhydric alcohol substituted silane derivative into various solvents so that the concentration would be 5 weight %, mixing and stirring at room temperature, allowing them to stand still, and visually observing the solution state. The evaluation criteria were as follows.

[5] = biological target: T1, papain (Carica papaya, UniProt P00784); assay: Stabilization of papain enzyme activity in solid gel on storage; assay type: biochemical
T1 sequence (P00784 134-345): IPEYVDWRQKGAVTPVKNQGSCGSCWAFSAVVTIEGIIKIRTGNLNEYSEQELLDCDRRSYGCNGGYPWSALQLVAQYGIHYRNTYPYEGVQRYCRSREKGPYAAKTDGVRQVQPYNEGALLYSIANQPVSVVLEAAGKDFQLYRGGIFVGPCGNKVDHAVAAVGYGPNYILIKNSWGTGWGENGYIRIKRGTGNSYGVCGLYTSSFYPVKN
Description: Into 1 g of water, 0.2 g of the propylene glycol substituted silane derivative, (Si—(OCH2CH2CH2OH)4), was dissolved. Into this solution, 0.2 mL of papain solution (4 μg/mL) was added and mixed, and the samples were charged on a 96-hole plate and allowed to stand for a fixed length of time. Similarly, several test samples were prepared, and they were maintained at various temperatures (0° C., 37° C., room temperature, and 50° C.). After 2 hours and after 3 days, the papain enzyme activity of each sample was measured. The enzyme activity was measured with a plate reader after the enzyme substrate, N-carbobenzoxy-phenylarginine-4-methylcoumarinamide (Z-PheArg-MCA), was directly added into the 96-hole plate and allowed to stand for 20 minutes at room temperature. In Comparative Example 5, the papain enzyme activity was measured in the same way as Example 21 except that the propylene glycol substituted silane derivative was not used.
The values of enzyme activity were standardized by setting the enzyme activity of the comparative example sample that had been stored at 0° C. for 2 hours to 100.0.

**Q.** Which “Appearance (gelation)” value ([1]; 2.5 % (wt/vol)) does the source give for `OCC(O)CO[Si](OCC(O)CO)(OCC(O)CO)OCC(O)CO` (stereo not drawn) [Glycerin substituted silane derivative, Si—(O—CH2—CHOH—CH2—OH)4] here?
**A.** Transparent solution, slight thickening after 2 hours, pasty

**Q.** And the “Appearance (gelation)” value ([1]; 5.6 % (wt/vol))?
**A.** Transparent solution, gelation after 3 hours, some

**Q.** And the “Appearance (gelation)” value ([1]; 11.0 % (wt/vol))?
**A.** Transparent solution, gelation after 1 hour, some

**Q.** What about the “Appearance (gelation)” value ([1]; 21.0 % (wt/vol)) of the same molecule?
**A.** Transparent solution, gelation (ringing gel) after 30

**Q.** And the “Appearance (gelation)” value ([1]; 35.0 % (wt/vol))?
**A.** Transparent solution, gelation (ringing gel) after 30

**Q.** What about the “Appearance (gelation)” value ([2]; 10.0 % (wt/vol)) of the same molecule?
**A.** Transparent, thickening after about 1 week, agar-like soft

**Q.** And the “Appearance (gelation)” value ([2]; 20.0 % (wt/vol))?
**A.** Translucent low-viscosity gel after 1 day, some

**Q.** What about the “Appearance (gelation)” value ([2]; 30.0 % (wt/vol)) of the same molecule?
**A.** Gelation after 1 day, some seeping-out ringing gel

**Q.** And the “Result of mixing the product with the same amount of water” value (from here on “Result of mixing the product”) ([3]; room temperature)?
**A.** homogeneous transparent gel

**Q.** Which results are given for `OCCCO[Si](OCCCO)(OCCCO)OCCCO` [Si—(OCH2CH2CH2OH)4]?
**A.** Result of mixing the product with the same amount of water ([3]; room temperature): homogeneous transparent gel; Solubility in other organic solvents [4]: excellent solubility in other organic solvents

**Q.** With `CC(O)CCO[Si](OCCC(C)O)(OCCC(C)O)OCCC(C)O` (stereo not drawn) [Si—(OCH2CH2CH2OHCH3)4] as the molecule, how does the “Appearance (gelation)” value ([1]; 2.9 % (wt/vol)) read?
**A.** Transparent solution, slight thickening after 2 hours, pasty

**Q.** And the “Appearance (gelation)” value ([1]; 5.3 % (wt/vol))?
**A.** Transparent solution, gelation after 1 hour, some

**Q.** And the “Appearance (gelation)” value ([1]; 10.4 % (wt/vol))?
**A.** Transparent solution, gelation after 12 minutes, some

**Q.** And the “Appearance (gelation)” value ([1]; 19.6 % (wt/vol))?
**A.** Transparent solution, gelation (ringing gel) after 2

**Q.** And the “Appearance (gelation)” value ([1]; 35.4 % (wt/vol))?
**A.** Transparent solution, gelation (ringing gel) after 1 minute

**Q.** And the “Appearance (gelation)” value ([2]; 10.0 % (wt/vol))?
**A.** Colloidal turbidity, slight thickening after about 1 week

**Q.** And the “Appearance (gelation)” value ([2]; 20.0 % (wt/vol))?
**A.** Colloidal turbidity, thickening after 2 days, translucent

**Q.** And the “Appearance (gelation)” value ([2]; 30.0 % (wt/vol))?
**A.** Colloidal turbidity, gelation after 2 days, seeping-out

**Q.** What about the “Result of mixing the product” value [3] of the same molecule?
**A.** homogeneous transparent gel

**Q.** And the “Solubility in other organic solvents” value [4]?
**A.** excellent solubility in other organic solvents

**Q.** For `OCCO[Si](OCCO)(OCCO)OCCO` [tetra(2-hydroxyethoxy)silane], which “Result of mixing the product” value ([3]; room temperature) is on record?
**A.** homogeneous transparent gel

B1: Comparative Example 5: papain sample prepared as Example 21 except that the propylene glycol substituted silane derivative was not used (protein, UniProt P00784 134-345, looked up)
Papain: IPEYVDWRQKGAVTPVKNQGSCGSCWAFSAVVTIEGIIKIRTGNLNEYSEQELLDCDRRSYGCNGGYPWSALQLVAQYGIHYRNTYPYEGVQRYCRSREKGPYAAKTDGVRQVQPYNEGALLYSIANQPVSVVLEAAGKDFQLYRGGIFVGPCGNKVDHAVAAVGYGPNYILIKNSWGTGWGENGYIRIKRGTGNSYGVCGLYTSSFYPVKN
**Q.** Which “Papain enzyme activity (standardized, Comparative Example 5 at 0° C. for 2 hours = 100.0)” value (“Papain enzyme activity” for short) ([5]; After 2 hours, 0° C.) does the source give for B1 here?
**A.** 100.0

**Q.** And the “Papain enzyme activity” value ([5]; After 2 hours, 37° C.)?
**A.** 98.3

**Q.** And the “Papain enzyme activity” value ([5]; After 2 hours, 50° C.)?
**A.** 67.1

**Q.** And the “Papain enzyme activity” value ([5]; After 2 hours, Room temperature)?
**A.** 96.5

**Q.** What about the “Papain enzyme activity” value ([5]; After 3 days, 0° C.) of the same molecule?
**A.** 98.9

**Q.** And the “Papain enzyme activity” value ([5]; After 3 days, 37° C.)?
**A.** 18.6

**Q.** And the “Papain enzyme activity” value ([5]; After 3 days, 50° C.)?
**A.** 2.2

**Q.** What about the “Papain enzyme activity” value ([5]; After 3 days, Room temperature) of the same molecule?
**A.** 34.5
